Experimental findings from patent publication US20240254138A1, “TRICYCLIC PYRIMIDINES AS CYCLIN-DEPENDENT KINASE 7 (CDK7) INHIBITORS” (JANSSEN PHARMACEUTICA NV, priority 2021, published 2024) are described below.

Assay [1] concerns RNA Polymerase II Serine 5 phosphorylation in A549 cells overexpressing CDK7-mutant (C312S). Nature of the assay: Imaging-based cellular RNA PolII Ser5 phosphorylation assay in A549 cells overexpressing CDK7-mutant (C312S). In kind it is cell-based, human. Particulars: RNA PolII Ser5 phosphorylation, averaged over all measurements; for IC50: Homo sapiens, A549, A549 cells overexpressing CDK7-mutant (C312S), read-out: CDK7_A549 mutant hCDK7(pIC50) (converted); for CDK7_A549 mutant hCDK7(pIC50): A549 cells overexpressing CDK7-mutant (C312S). Summed up:
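Readout was automated imaging of anti-phospho-Ser5 Rpb1 CTD immunofluorescence, with IC50 fitted to % control versus concentration. Cells were A549 stably overexpressing non-covalently targetable CDK7 C312S alongside wild-type, exposed to compound 3 h at 37 °C. DMSO and 10 μM reference compound served as controls.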

The target in assay [2] is CDK7/cyclinH/MAT1 trimeric complex (Homo sapiens, UniProt P50613). Kind of assay: In vitro CDK7 assay, potency of irreversible covalent inhibitors (kinact/KI), coupled PK/LDH ADP readout at 340 nm. Conditions: for Ki: CDK7 (20 nM enz.) (KI, μM); for kinact: read-out: CDK7 (20 nM enz.) (kinact, s^−1), 20 nM enzyme.
CDK7/cyclinH/MAT1 trimeric complex, sequence (P50613 whole entry): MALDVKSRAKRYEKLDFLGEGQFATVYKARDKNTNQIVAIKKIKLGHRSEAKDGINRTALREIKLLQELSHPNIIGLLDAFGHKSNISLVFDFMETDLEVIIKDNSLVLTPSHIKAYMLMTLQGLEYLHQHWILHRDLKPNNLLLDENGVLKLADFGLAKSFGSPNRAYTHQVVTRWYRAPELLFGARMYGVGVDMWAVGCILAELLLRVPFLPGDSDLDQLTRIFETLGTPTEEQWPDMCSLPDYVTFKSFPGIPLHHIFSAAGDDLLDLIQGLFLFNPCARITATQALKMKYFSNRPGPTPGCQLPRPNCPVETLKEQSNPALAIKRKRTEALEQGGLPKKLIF
CDK7/cyclinH/MAT1 trimeric complex, sequence (P51946 whole entry partner): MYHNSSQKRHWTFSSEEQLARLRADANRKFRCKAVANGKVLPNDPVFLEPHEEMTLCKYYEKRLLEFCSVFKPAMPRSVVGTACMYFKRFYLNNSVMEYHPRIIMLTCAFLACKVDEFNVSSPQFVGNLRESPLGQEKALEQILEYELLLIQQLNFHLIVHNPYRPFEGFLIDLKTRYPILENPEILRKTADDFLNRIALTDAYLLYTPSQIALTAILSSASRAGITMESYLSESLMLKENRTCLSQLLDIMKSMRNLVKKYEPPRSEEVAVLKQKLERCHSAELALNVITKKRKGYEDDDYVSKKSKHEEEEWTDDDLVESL
CDK7/cyclinH/MAT1 trimeric complex, sequence (P51948 whole entry partner): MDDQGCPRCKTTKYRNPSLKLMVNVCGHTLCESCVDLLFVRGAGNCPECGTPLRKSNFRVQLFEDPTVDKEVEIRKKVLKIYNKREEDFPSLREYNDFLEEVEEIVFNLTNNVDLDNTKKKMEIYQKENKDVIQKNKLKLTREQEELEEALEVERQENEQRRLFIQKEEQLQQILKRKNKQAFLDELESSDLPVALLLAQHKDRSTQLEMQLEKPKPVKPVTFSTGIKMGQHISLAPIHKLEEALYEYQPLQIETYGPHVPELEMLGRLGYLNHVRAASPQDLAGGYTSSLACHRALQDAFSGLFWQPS
The test system of assay [3] is RNA Polymerase II Serine 5 phosphorylation (Rpb1 CTD, downstream substrate of CDK7) in A549 cells. Kind of assay: Imaging-based cellular RNA PolII Ser5 phosphorylation assay in A549 cells. In kind it is cell-based, human. Particulars: wild-type CDK7, RNA PolII Ser5 phosphorylation, averaged over all measurements; for IC50: Homo sapiens, A549, A549 cells, read-out: CDK7_A549 Wild-type CDK7 (pIC50) (converted); for CDK7_A549 Wild-type CDK7 (pIC50): A549 cells. Summed up:
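IC50 derived by fitting % control (DMSO high, 10 μM reference low) against concentration, with Hill slope. Readout: high-content imaging of phospho-Ser5 Rpb1 CTD antibody staining in fixed, permeabilized A549 cells exposed to compound 3 h after 20 h culture in 1% FBS DMEM.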

The mark [4] stands for this setting: read-out: CDK7 (20 nM enz.) (kinact/KI, M^−1*s^−1), 20 nM enzyme.
[5] abbreviates: read-out: CDK7 (20 nM enz.) (kobs/[I], M^−1*s^−1), 20 nM enzyme.

SMILES strings stand for the structures. Where two headings read alike, the source gives them in different places.

As usually defined, the kinact is the rate constant of inactivation at saturating inhibitor. With `C=C(F)C(=O)N1CC(N2CCC(c3ccc4c(c3)Nc3nccc(C5CCOCC5)c3CO4)CC2)C1` [Compound 188], the results for the IC50 in assay [1] and in assay [3] were above 10 µM and 1.07 µM, respectively. Further, in assay [2] (20 nM enzyme), the Ki was determined as 0.507 µM. Further, the kinact in assay [2] turned out to be 3.02e-05 s⁻¹. The kinact/KI in assay [2] (setting [4]) stood at 59.6 M⁻¹ s⁻¹.

Consider `C=CC(=O)N1CC(N2CCC(c3cc(F)c4c(c3)Nc3nccc(-c5cnn(C)c5)c3CO4)CC2)C1` [Compound 189], for which the “CDK7_A549 mutant hCDK7(pIC50)” value in assay [1] is given as below 5. Further, the kinact/KI in assay [2] (setting [5]) is 1440 M⁻¹ s⁻¹. Further, the “CDK7_A549 Wild-type CDK7 (pIC50)” value in assay [3] was 7.37.

As to `C=CC(=O)N1CC(n2cc(-c3cc(C)c4c(c3)Nc3nccc(N5CCOCC5)c3CO4)cn2)C1` [Compound 190], the IC50 in assay [1] is around 8.91 µM; in assay [3], 0.0339 µM. For the same compound, in assay [2] (setting [5]), the kinact/KI stood at 1250 M⁻¹ s⁻¹.

For `C=CC(=O)N1CC(N2CC(c3ccc4c(c3)Nc3nccc(-c5cnn(C)c5)c3C(C)O4)C2)C1` (centres unmarked) [Compound 197], the IC50 in assay [1] is above 10 µM; in assay [3], 0.123 µM. In assay [2] (20 nM enzyme), the Ki was 0.134 µM. In addition, in assay [2], the kinact came out at 7.96e-05 s⁻¹. In assay [2] (setting [4]), the kinact/KI stood at 596 M⁻¹ s⁻¹.

In the case of `C=CC(=O)N1CC(N2CC(c3cc4c(c(C)n3)OCc3c(-c5cnn(C)c5)ccnc3N4)C2)C1` [Compound 198], the results for the IC50 in assay [1] and in assay [3] were above 10 µM and 0.24 µM, respectively. In addition, in assay [2] (20 nM enzyme), the Ki was found to be 0.365 µM. In addition, the kinact in assay [2] stood at 4.47e-05 s⁻¹. Further, in assay [2] (setting [4]), the kinact/KI stood at 122 M⁻¹ s⁻¹.

Turning to `C=CC(=O)N1CC(N2CC(c3cc4c(c(C)n3)OCc3c(N5CCOCC5)ccnc3N4)C2)C1` [Compound 205], the IC50 in assay [1] was above 10 µM. For the same compound, in assay [2] (20 nM enzyme), the “CDK7 (20 nM enz.) (kinact/KI, M^−1*s^−1)” value is 399.588 M⁻¹ s⁻¹ and the Ki stood at 0.119 µM. Also, the kinact in assay [2] came to 4.74e-05 s⁻¹. In addition, the IC50 in assay [3] is 0.0933 µM.

For `C=CC(=O)N1CC(N2CC(c3cc(C)c4c(c3)Nc3nccc(N5CCOCC5)c3CO4)C2)C1` [Compound 215], the IC50 in assay [1] is above 10 µM; in assay [3], 0.0646 µM. For the same compound, the kinact/KI in assay [2] (setting [5]) worked out at 753 M⁻¹ s⁻¹.

Consider `C=CC(=O)N1CC(N2CCC(c3cc4c(c(C)n3)OCc3c(N5CCOCC5)ccnc3N4)CC2)C1` [Compound 217], for which the “CDK7_A549 mutant hCDK7(pIC50)” value in assay [1] is on record as below 5. Also, in assay [2] (20 nM enzyme), the “CDK7 (20 nM enz.) (kinact, s^−1)” value was 8.548e-05 s⁻¹; the “CDK7 (20 nM enz.) (kinact/KI, M^−1*s^−1)” value is 845.246 M⁻¹ s⁻¹; the Ki worked out at 0.101 µM. In addition, the “CDK7_A549 Wild-type CDK7 (pIC50)” value in assay [3] stood at 7.15.

As to `C=CC(=O)N1CC[C@H](N2CC(c3cc4c(c(C)n3)OCc3c(N5CCOCC5)ccnc3N4)C2)[C@H](F)C1` [Compound 225], the IC50 was above 10 µM in assay [1] and 0.126 µM in assay [3]. In assay [2] (20 nM enzyme), this compound yielded a Ki of 0.337 µM. The kinact in assay [2] amounted to 6.24e-05 s⁻¹. The kinact/KI in assay [2] (setting [4]) was determined as 185 M⁻¹ s⁻¹.

As to `C=CC(=O)N1CC(N2CC(c3cc4c(c(C(F)(F)F)n3)OCc3c(N5CCOCC5)ccnc3N4)C2)C1` [Compound 235], the IC50 in assay [1] is 9.55 µM; in assay [3], 0.0708 µM. The “CDK7 (20 nM enz.) (kobs/[I], M^−1*s^−1)” value in assay [2] (20 nM enzyme) was 962.5 M⁻¹ s⁻¹.

With `C=CC(=O)N1CC(N2CCN(c3cc4c(c(C)n3)OCc3c(N5CCOCC5)ccnc3N4)CC2)C1` [Compound 237], the IC50 was above 10 µM in assay [1] and 0.132 µM in assay [3]. The compound further registered a Ki in assay [2] (20 nM enzyme) of 0.0731 µM. The kinact in assay [2] amounted to 3.42e-05 s⁻¹. In addition, the kinact/KI in assay [2] (setting [4]) turned out to be 468 M⁻¹ s⁻¹.

With `C=CC(=O)N1CC(n2cc(-c3cc4c(c(C)n3)OCc3c(N5CCOCC5)ccnc3N4)cn2)C1` [Compound 244], the IC50 in assay [1] is around 7.94 µM; in assay [3], 0.0724 µM. The Ki in assay [2] (20 nM enzyme) was determined as 0.0398 µM. Moreover, the kinact in assay [2] turned out to be 4.37e-05 s⁻¹. In addition, the kinact/KI in assay [2] (setting [4]) was found to be 1100 M⁻¹ s⁻¹.

For `C=CC(=O)N1CC(N2CCN(c3cc4c(cn3)OCc3c(N5CCOCC5)ccnc3N4)CC2)C1` [Compound 248], the values for the IC50 in assay [1] and in assay [3] were above 10 µM and 0.174 µM, respectively. This compound also displayed a Ki in assay [2] (20 nM enzyme) of 0.307 µM. Also, in assay [2], the kinact came out at 8.51e-05 s⁻¹. Further, the kinact/KI in assay [2] (setting [4]) was 277 M⁻¹ s⁻¹.

On to `C=CC(=O)N1CCC2(CC1)CC(c1cc(F)c3c(c1)Nc1nccc(N4CCOCC4)c1CO3)C2` [Compound 250], for which the IC50 in assay [1] is above 10 µM; in assay [3], 1.82 µM. Also, the Ki in assay [2] (20 nM enzyme) was determined as 0.564 µM. Moreover, the kinact in assay [2] is 1.06e-05 s⁻¹. Besides, the kinact/KI in assay [2] (setting [4]) stood at 18.9 M⁻¹ s⁻¹.

As for `C=CC(=O)N1CC(N2CC(c3cc(C#N)c4c(c3)Nc3nccc(N5CCOCC5)c3CO4)C2)C1` [Compound 253], the IC50 in assay [1] is 6.31 µM; in assay [3] it was 0.0501 µM. In assay [2] (setting [5]), the kinact/KI is 989 M⁻¹ s⁻¹.

As to `C=CC(=O)N1CC(N2CCC(c3ccc4c(c3)Nc3nccc(-c5cnn(C)c5)c3C(C)(C)O4)CC2)C1` [Compound 260], the “CDK7_A549 mutant hCDK7(pIC50)” value in assay [1] is on record as below 5. In assay [2] (20 nM enzyme), the “CDK7 (20 nM enz.) (kinact, s^−1)” value worked out at 4.64e-05 s⁻¹; the “CDK7 (20 nM enz.) (kinact/KI, M^−1*s^−1)” value was 1810.44 M⁻¹ s⁻¹; the Ki was 0.0256 µM. Also, the “CDK7_A549 Wild-type CDK7 (pIC50)” value in assay [3] was 7.1.

For the compound `C=CC(=O)N1CC(N2CC(c3cc4c(c(C)n3)OC(C)c3c(N5CCOCC5)ccnc3N4)C2)C1` (centres unmarked) [Compound 264], the IC50 in assay [1] is above 10 µM; in assay [3], around 0.138 µM. The same compound gave a Ki in assay [2] (20 nM enzyme) of 0.0439 µM. For the same compound, the kinact in assay [2] came to 3.44e-05 s⁻¹. In assay [2] (setting [4]), the kinact/KI came out at 782 M⁻¹ s⁻¹.

With `C=CC(=O)N1CC(N2CC(c3cc4c(c(C(F)(F)F)c3)OCc3c(N5CCOCC5)ccnc3N4)C2)C1` [Compound 267], the IC50 was around 7.24 µM in assay [1] and 0.0234 µM in assay [3]. Further, in assay [2] (setting [5]), the kinact/KI was determined as 977 M⁻¹ s⁻¹.

As for `CC#CC(=O)N1CC(N2CCC(c3ccc4c(c3)Nc3nccc(C5CCOCC5)c3CO4)CC2)C1` [Compound 269], the IC50 was above 10 µM in assay [1] and 0.162 µM in assay [3]. Besides, the Ki in assay [2] (20 nM enzyme) worked out at 0.103 µM. Further, in assay [2], the kinact is 4.28e-05 s⁻¹. Also, the kinact/KI in assay [2] (setting [4]) was 417 M⁻¹ s⁻¹.

Regarding `C=CC(=O)N1CC(N2CC(c3cc4c(c(C)n3)OCc3c(N5CCOCC5)ccnc3N4)C2)C1` [Compound 273], the “CDK7_A549 mutant hCDK7(pIC50)” value in assay [1] is below 5. In addition, in assay [2] (20 nM enzyme), the “CDK7 (20 nM enz.) (kinact, s^−1)” value stood at 4.486e-05 s⁻¹; the “CDK7 (20 nM enz.) (kinact/KI, M^−1*s^−1)” value amounted to 945.57 M⁻¹ s⁻¹; the Ki came out at 0.0474 µM. Further, in assay [3], the “CDK7_A549 Wild-type CDK7 (pIC50)” value stood at 6.94.

For `CC#CC(=O)N1CCC(N2CC(c3cc(C)c4c(c3)Nc3nccc(C5CCOCC5)c3CO4)C2)C1` (centres unmarked) [Compound 274], the IC50 is above 10 µM in assay [1] and 0.174 µM in assay [3]. This compound came in with a Ki in assay [2] (20 nM enzyme) of 0.0714 µM. In assay [2], the kinact stood at 3.45e-05 s⁻¹. Also, in assay [2] (setting [4]), the kinact/KI came to 483 M⁻¹ s⁻¹.

For `C=CC(=O)N1CC(N2CCC(c3cc4c(c(-c5ncc[nH]5)c3)OCc3c(N5CCOCC5)ccnc3N4)CC2)C1` [Compound 275], the values for the IC50 in assay [1] and in assay [3] were above 10 µM and 0.0871 µM, respectively. The kinact/KI in assay [2] (setting [5]) turned out to be 921 M⁻¹ s⁻¹.

With `CC#CC(=O)N1CC(c2nc(C)c(-c3cc4c(c(C)n3)OCc3c(N5CCOCC5)ccnc3N4)c(C)n2)C1` [Compound 278], the figures for the IC50 in assay [1] and in assay [3] were above 10 µM and 0.166 µM, respectively. Further, the Ki in assay [2] (20 nM enzyme) amounted to 0.226 µM. In addition, the kinact in assay [2] came out at 3.13e-05 s⁻¹. For the same compound, the kinact/KI in assay [2] (setting [4]) was 139 M⁻¹ s⁻¹.

Take `C=CC(=O)N1CC(n2cc(-c3cc(C#N)c4c(c3)Nc3nccc(N5CCOCC5)c3CO4)cn2)C1` [Compound 285]: the IC50 in assay [1] was 1.86 µM; in assay [3] it was 0.0195 µM. Further, the kinact/KI in assay [2] (setting [5]) amounted to 964 M⁻¹ s⁻¹.
